Data as given in article PMC10377586 (Biomolecules, 2023).

Experiments:
human D2L receptor = human D2L receptor (Homo sapiens, UniProt P14416); test: Radioligand binding [3H]-raclopride, HEK293 membranes; conditions: HEK293 cells, human D2; read-out: hD2 [3H]-Raclopride Ki ± SEM
Procedure: Rat brain cortical membranes were used as source of native rat D1 receptor protein, and human D2 receptor was recombinantly expressed in HEK293 cells.
HEK293 cells with stable expression of human D2L receptor were maintained at 37 °C in a humidified atmosphere with 5% CO2 and grown in Dulbecco’s Modifier Eagle Medium containing 10% dialyzed fetal bovine serum and 500 µg/mL G418 sulfate. For membrane preparation, cells were subcultured in 150 cm^2 flasks, grown to 90% confluence, washed twice with prewarmed to 37 °C phosphate buffered saline (PBS), and pelleted by centrifugation (200× g) in PBS containing 0.1 mM EDTA and 1 mM dithiothreitol. Prior to membrane preparation, pellets were stored at −80 °C.
Cell pellets were thawed and homogenized in 10 volumes of assay buffer using an Ultra Turrax tissue homogenizer and centrifuged twice at 35,000× g for 15 min at 4 °C. The incubation buffer consisted of 50 mM Tris-HCl, 1 mM EDTA, 4 mM MgCl2, 120 mM NaCl, 5 mM KCl, 1.5 mM CaCl2, and 0.1% ascorbate. Assay was incubated in a total volume of 200 µL in 96-well microtiter plate for 1 h at 37 °C. The process of equilibration was terminated by rapid filtration through Unifilter plate with a 96-well cell harvester and radioactivity retained on the filter was quantified on a Microbeta plate reader (PerkinElmer). For competition studies, the assay samples contained radioligand 2.5 nM [^3H]-raclopride (PerkinElmer). Non-specific binding was defined with 10 µM of haloperidol. Each compound was tested in triplicate at 7 concentrations (10^−10–10^−4 M). The inhibition constants (Ki) were calculated from the Cheng–Prusoff equation [66]. Results were expressed as means of at least two separate experiments.

human PDE10A1 = molecular target: T1, human PDE10A1 (Homo sapiens, UniProt Q9Y233); test: PDElight HTS cAMP phosphodiesterase assay, PDE10A1; format: biochemical; conditions: for IC50: read-out: PDE 10A1 IC50 ± SEM; for inhibition at 10 µM: read-out: PDE 10A1 % Inhibition ± SEM at 10 µM
T1 construct: purchased BPS Biosciences
Procedure: (§1) Further biological evaluation of the presented compound library was performed determining inhibitory potencies against selected human PDE isoforms, namely, PDE4 and PDE10 (for results see Table 3).
(§2) Tested and reference compounds were dissolved in dimethyl sulfoxide (DMSO) at a concentration of 10 mM and further diluted in assay buffer (10 mM Tris-HCl, 10 mM magnesium chloride and 0.05% Tween-20; pH 7.4). Inhibition of human PDE10A and 4B1 was measured using PDElight HTS cAMP phosphodiesterase assay kit (Lonza, Basel, Switzerland) according to manufacturer’s recommendations. Then, 10 ng of PDE10A and 5 ng of PDE4B1 (BPS Biosciences, San Diego, CA, USA) in appropriate buffer was incubated with reference and tested compound for 20 min. […] Then PDELight AMP Detection Reagent was added and incubated 10 min. All reactions were carried out at 37 °C in 96 white-walled, half-area-well plates (PerkinElmer). Luminescence was measured in a multifunction plate reader (POLARstar Omega, BMG Labtech, Ortenberg, Germany). The percentage of inhibition and IC50s were computed using GraphPad Prism Version 6.0 software.

human PDE4B1 = molecular target: T2, human PDE4B1 (Homo sapiens, UniProt Q07343); test: PDElight HTS cAMP phosphodiesterase assay, PDE4B1; format: biochemical; conditions: for IC50: read-out: PDE 4B1 IC50 ± SEM; for inhibition at 10 µM: read-out: PDE 4B1 % Inhibition ± SEM at 10 µM
T2 construct: purchased BPS Biosciences
Procedure: as §1, §2

rat A1 (rA1) ARs = molecular target: T3, rat A1 (rA1) ARs (Rattus norvegicus, UniProt P25099); test: Radioligand binding [3H]CCPA, rat brain cortical membranes; conditions: read-out: rA1 [3H]CCPA Ki ± SEM
T3 construct: using rat brain cortical membrane preparations for A1; tissue Pel Freez; host or cells: rat brain cortex membranes
T3 sequence (P25099 1-326): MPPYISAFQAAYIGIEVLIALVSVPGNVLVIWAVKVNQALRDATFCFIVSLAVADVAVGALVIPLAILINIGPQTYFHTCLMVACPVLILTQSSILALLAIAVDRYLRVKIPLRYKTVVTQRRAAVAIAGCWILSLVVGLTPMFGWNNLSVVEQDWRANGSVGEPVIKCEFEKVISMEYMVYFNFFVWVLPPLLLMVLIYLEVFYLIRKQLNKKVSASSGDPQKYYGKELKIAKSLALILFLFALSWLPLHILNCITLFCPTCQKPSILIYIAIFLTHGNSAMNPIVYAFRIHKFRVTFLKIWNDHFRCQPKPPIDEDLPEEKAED
Procedure: The final compounds were tested in radioligand binding assays to evaluate their affinity for all four ARs subtypes (see Table 2). Rat brain cortical membrane preparations were used as a source of rat A1 (rA1) ARs, and rat brain striatal membrane preparations served as a source of rat A2A (rA2A) ARs. For A2B- and A3AR assays, membrane preparations of Chinese hamster ovary (CHO) cells recombinantly expressing either human A2B (hA2B) or human A3 (hA3) ARs were employed.
Adenosine receptor radioligand binding assays were performed as previously described using rat brain cortical membrane preparations for A1 and rat brain striatal membrane preparations for A2A AR assays. Frozen rat brains (unstripped) were obtained from Pel Freez, Rogers, AR, USA. For assays at human AR subtypes, cell membranes of CHO cells recombinantly expressing the respective receptor were used. The following compounds were employed as radioligands: A1: [^3H]2-chloro-N^6-cyclopentyladenosine ([^3H]CCPA); A2A: [^3H]3-(3-hydroxypropyl)-7-methyl-8-(m-methoxystyryl)-1-propargylxanthine ([^3H]MSX-2); A2B: [^3H]8-(4-(4-(4-chlorophenyl)piperazine-1-sulfonyl)phenyl)-1-propylxanthine ([^3H]PSB-603); A3: [^3H]phenyl-8-ethyl-4-methyl-(8R)-4,5,7,8-tetrahydro-1H-imidazo[2,1-i]purine-5-one ([^3H]PSB-11). Initially, a single high concentration of compound was tested (1 µM). For potent compounds, full concentration–inhibition curves were determined using six to ten different concentrations of test compound spanning three orders of magnitude. At least three independent experiments were performed. Data were analyzed using GraphPad PRISM program version 4.0 or higher (Graph Pad, San Diego, CA, USA).

T1 sequence (Q9Y233 1-779 isoform Q9Y233-1): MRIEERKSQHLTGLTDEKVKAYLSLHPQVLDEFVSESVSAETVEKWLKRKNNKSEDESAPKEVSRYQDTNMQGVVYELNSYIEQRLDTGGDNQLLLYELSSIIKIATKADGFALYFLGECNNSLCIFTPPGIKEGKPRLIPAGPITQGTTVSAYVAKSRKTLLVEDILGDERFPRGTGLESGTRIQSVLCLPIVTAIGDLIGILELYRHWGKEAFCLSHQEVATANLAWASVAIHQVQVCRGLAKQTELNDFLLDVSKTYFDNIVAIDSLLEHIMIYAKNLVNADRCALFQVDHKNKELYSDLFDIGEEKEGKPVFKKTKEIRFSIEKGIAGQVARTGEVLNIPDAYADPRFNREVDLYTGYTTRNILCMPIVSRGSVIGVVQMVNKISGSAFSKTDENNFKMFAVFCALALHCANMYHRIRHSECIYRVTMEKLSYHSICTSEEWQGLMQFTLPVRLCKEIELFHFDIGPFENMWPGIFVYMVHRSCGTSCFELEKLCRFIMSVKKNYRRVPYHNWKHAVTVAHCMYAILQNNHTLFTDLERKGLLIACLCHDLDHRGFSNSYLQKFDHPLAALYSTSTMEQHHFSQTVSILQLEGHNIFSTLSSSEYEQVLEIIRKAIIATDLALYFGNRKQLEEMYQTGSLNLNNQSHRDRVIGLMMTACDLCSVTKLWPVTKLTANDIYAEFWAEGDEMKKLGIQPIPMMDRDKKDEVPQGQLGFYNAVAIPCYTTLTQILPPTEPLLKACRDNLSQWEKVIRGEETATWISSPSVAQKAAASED
human D2L receptor, sequence (P14416 whole entry): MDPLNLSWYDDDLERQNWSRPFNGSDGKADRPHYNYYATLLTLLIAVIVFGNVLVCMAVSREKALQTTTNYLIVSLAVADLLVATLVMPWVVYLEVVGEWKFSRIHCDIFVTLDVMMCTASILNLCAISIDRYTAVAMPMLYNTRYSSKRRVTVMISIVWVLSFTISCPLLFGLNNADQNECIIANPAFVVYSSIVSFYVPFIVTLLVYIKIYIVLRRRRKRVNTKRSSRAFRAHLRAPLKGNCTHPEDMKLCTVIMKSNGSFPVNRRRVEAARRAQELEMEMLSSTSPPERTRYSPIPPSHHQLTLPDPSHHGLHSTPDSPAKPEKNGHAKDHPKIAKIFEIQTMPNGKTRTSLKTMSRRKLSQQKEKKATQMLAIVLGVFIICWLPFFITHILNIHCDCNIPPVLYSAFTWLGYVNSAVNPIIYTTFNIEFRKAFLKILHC
T2 sequence (Q07343 whole entry): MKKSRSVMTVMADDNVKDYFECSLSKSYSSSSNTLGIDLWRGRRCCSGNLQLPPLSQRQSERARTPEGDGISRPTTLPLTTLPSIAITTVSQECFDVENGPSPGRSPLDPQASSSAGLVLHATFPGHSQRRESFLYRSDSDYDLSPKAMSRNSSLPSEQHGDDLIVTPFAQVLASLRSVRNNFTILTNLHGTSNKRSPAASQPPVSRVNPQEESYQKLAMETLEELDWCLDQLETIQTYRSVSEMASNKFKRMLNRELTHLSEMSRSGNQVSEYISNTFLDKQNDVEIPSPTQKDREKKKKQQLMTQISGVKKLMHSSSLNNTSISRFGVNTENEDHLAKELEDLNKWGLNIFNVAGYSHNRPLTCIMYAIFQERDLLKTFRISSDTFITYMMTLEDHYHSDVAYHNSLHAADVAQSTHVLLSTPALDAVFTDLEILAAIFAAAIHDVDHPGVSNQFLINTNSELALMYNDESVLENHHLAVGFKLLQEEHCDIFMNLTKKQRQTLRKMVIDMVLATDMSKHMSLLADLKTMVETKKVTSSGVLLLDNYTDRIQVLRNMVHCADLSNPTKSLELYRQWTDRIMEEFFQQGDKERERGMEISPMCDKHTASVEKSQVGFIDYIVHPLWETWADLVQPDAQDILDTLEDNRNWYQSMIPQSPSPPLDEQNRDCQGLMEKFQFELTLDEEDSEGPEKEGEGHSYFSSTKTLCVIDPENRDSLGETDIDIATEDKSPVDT

Ki (human D2L receptor) [µM] | IC50 (human PDE10A1) [µM] | IC50 (human PDE4B1) [µM] | Ki (rat A1 (rA1) ARs) [µM] | inhibition at 10 µM (human PDE10A1) [%] | inhibition at 10 µM (human PDE4B1) [%] | SMILES
25.2 ± 5.97 | 15.1 ± 3.1 | 7.85 ± 1.85 | 1.98 ± 0.29 | – | – | Cn1c(=O)c2c(nc(NCCc3ccc(O)c(O)c3)n2C)n(C)c1=O [Compound 11a, 8-((3,4-Dihydroxyphenethyl)amino)-1,3,7-trimethyl-3,7-dihydro-1H-purine-2,6-dione]
16.2 ± 1.23 | 4.63 ± 1.25 | 2.52 ± 0.14 | 0.479 ± 0.095 | – | – | CCn1c(NCCc2ccc(O)c(O)c2)nc2c1c(=O)n(C)c(=O)n2C [Compound 11b, 8-((3,4-Dihydroxyphenethyl)amino)-7-ethyl-1,3-dimethyl-3,7-dihydro-1H-purine-2,6-dione]
9.37 ± 1.15 | 3.45 ± 0.27 | 3.32 ± 0.8 | 0.73 ± 0.093 | – | – | CCCn1c(NCCc2ccc(O)c(O)c2)nc2c1c(=O)n(C)c(=O)n2C [Compound 11c, 8-((3,4-Dihydroxyphenethyl)amino)-1,3-dimethyl-7-propyl-3,7-dihydro-1H-purine-2,6-dione]
17.7 ± 3.99 | 2.3 ± 0.64 | 2.44 ± 0.8 | 0.857 ± 0.043 | – | – | CC(C)n1c(NCCc2ccc(O)c(O)c2)nc2c1c(=O)n(C)c(=O)n2C [Compound 11d, 8-((3,4-Dihydroxyphenethyl)amino)-7-isopropyl-1,3-dimethyl-3,7-dihydro-1H-purine-2,6-dione]
12.7 ± 1.86 | 3.77 ± 1.29 | 3.16 ± 0.53 | 0.304 ± 0.066 | – | – | CCCCn1c(NCCc2ccc(O)c(O)c2)nc2c1c(=O)n(C)c(=O)n2C [Compound 11e, 7-Butyl-8-((3,4-dihydroxyphenethyl)amino)-1,3-dimethyl-3,7-dihydro-1H-purine-2,6-dione]
27.6 ± 4 | – | 3.76 ± 0.16 | 1.13 ± 0.18 | 59 | – | CC(C)Cn1c(NCCc2ccc(O)c(O)c2)nc2c1c(=O)n(C)c(=O)n2C [Compound 11f, 8-((3,4-Dihydroxyphenethyl)amino)-7-isobutyl-1,3-dimethyl-3,7-dihydro-1H-purine-2,6-dione]
39.2 ± 8.43 | 10.2 ± 0.9 | 4.41 ± 0.23 | 1.17 ± 0.38 | – | – | CCC(C)n1c(NCCc2ccc(O)c(O)c2)nc2c1c(=O)n(C)c(=O)n2C (stereo not shown) [Compound 11g, 7-(Sec-butyl)-8-((3,4-dihydroxyphenethyl)amino)-1,3-dimethyl-3,7-dihydro-1H-purine-2,6-dione]
8.26 ± 0.48 | ≥ 10 | 4.43 ± 0.25 | 0.191 ± 0.03 | 51 | – | CCCCCn1c(NCCc2ccc(O)c(O)c2)nc2c1c(=O)n(C)c(=O)n2C [Compound 11h, 8-((3,4-Dihydroxyphenethyl)amino)-1,3-dimethyl-7-pentyl-3,7-dihydro-1H-purine-2,6-dione]
6.68 ± 0.95 | > 10 | > 10 | > 10 | 14 | 42 | CCCCCCn1c(NCCc2ccc(O)c(O)c2)nc2c1c(=O)n(C)c(=O)n2C [Compound 11i, 8-((3,4-Dihydroxyphenethyl)amino)-7-hexyl-1,3-dimethyl-3,7-dihydro-1H-purine-2,6-dione]
9.1 ± 1.65 | ≥ 10 | 3.29 ± 0.54 | 0.455 ± 0.077 | 36 | – | Cn1c(=O)c2c(nc(NCCc3ccc(O)c(O)c3)n2Cc2ccccc2)n(C)c1=O [Compound 11j, 7-Benzyl-8-((3,4-dihydroxyphenethyl)amino)-1,3-dimethyl-3,7-dihydro-1H-purine-2,6-dione]
9.95 ± 1.95 | 2.41 ± 0.07 | 4.4 ± 0.54 | ≥ 10 | – | – | Cn1c(=O)c2c(nc(NCCc3ccc(O)c(O)c3)n2CCc2ccccc2)n(C)c1=O [Compound 11k, 8-((3,4-Dihydroxyphenethyl)amino)-1,3-dimethyl-7-phenethyl-3,7-dihydro-1H-purine-2,6-dione]
8.87 ± 0.94 | > 10 | > 10 | 0.124 ± 0.022 | 17 | 20 | Cn1c(=O)c2c(nc(NCCc3ccc(O)c(O)c3)n2CCOc2ccccc2)n(C)c1=O [Compound 11l, 8-((3,4-Dihydroxyphenethyl)amino)-1,3-dimethyl-7-(2-phenoxyethyl)-3,7-dihydro-1H-purine-2,6-dione]
13.3 ± 2.2 | 2.73 ± 0.03 | 14.5 ± 0.48 | 0.13 ± 0.031 | – | – | CCCn1c(=O)c2c(nc(NCCc3ccc(O)c(O)c3)n2CCC)n(CCC)c1=O [Compound 12, 8-((3,4-Dihydroxyphenethyl)amino)-1,3,7-tripropyl-3,7-dihydro-1H-purine-2,6-dione]
6.68 ± 0.87 | > 10 | > 10 | ≥ 10 | 35 | 44 | Cn1c(=O)c2c(nc3n2CCCN3CCc2ccc(O)c(O)c2)n(C)c1=O [Compound 20a, 9-(3,4-Dihydroxyphenethyl)-1,3-dimethyl-6,7,8,9-tetrahydropyrimido[2,1-f]purine-2,4(1H,3H)-dione]
10.7 ± 1.4 | 30.7 ± 0.2 | > 10 | 1.05 ± 0.17 | – | 45 | Cn1c(=O)c2c(nc3n2CCCCN3CCc2ccc(O)c(O)c2)n(C)c1=O [Compound 20b, 10-(3,4-Dihydroxyphenethyl)-1,3-dimethyl-7,8,9,10-tetrahydro-1H-[1, 3]diazepino[2,1-f]purine-2,4(3H,6H)-dione]
12.7 ± 2.8 | 31 ± 0.1 | 16.5 ± 0.32 | 0.07 ± 0.005 | – | – | CCCn1c(=O)c2c(nc3n2CCCN3CCc2ccc(O)c(O)c2)n(CCC)c1=O [Compound 21, 9-(3,4-Dihydroxyphenethyl)-1,3-dipropyl-6,7,8,9-tetrahydropyrimido[2,1-f]purine-2,4(1H,3H)-dione]

SMILES | Ki (human D2L receptor) [µM] | IC50 (human PDE10A1) [µM] | IC50 (human PDE4B1) [µM] | Ki (rat A1 (rA1) ARs) [µM] | inhibition at 10 µM (human PDE10A1) [%] | inhibition at 10 µM (human PDE4B1) [%]
CCCCn1c(=O)c2c(nc(NCCc3ccc(O)c(O)c3)n2CCC)n(CCCC)c1=O [Compound 13, 1,3-Dibutyl-8-((3,4-dihydroxyphenethyl)amino)-7-propyl-3,7-dihydro-1H-purine-2,6-dione] | 4.39 ± 0.43 | > 10 | > 10 | 0.1 ± 0.015 | 26 | 28
